Laboratory results as given in patent US10206902B2, “Mono- or di-substituted indoles as dengue viral replication inhibitors” (priority 2014, dated 2019).

Tests used:
Vero cells = assay: in vitro; type: cell-based; conditions: African green monkey
Procedure: In parallel, the toxicity of the compounds was assessed on the same plates. Once the read-out for the eGFP signal was done, 10 μL of resazurin, a cell viability stain, was added to all wells of the 384-well plates. The resazurin assay is based on the reduction of the blue resazurin by NADH, produced by the cells, into the highly fluorescent product, resorufin. The formation of pink fluorescent resorufin is directly related to the number of viable cells in the well. The plates were incubated for an additional 5 hours in a fully humidified incubator (37° C., 5% CO2). Next, the plates were measured on an Infinite reader (Tecan) using an excitation wavelength of 530 nm. The half maximal cytotoxic concentration (CO50) was also determined, defined as the concentration required to reduce the resazurin conversion by 50% compared to that of the cell control wells (Table 1). Finally, the selectivity index (SI) was determined for the compounds, which was calculated as followed: SI=CC50/EC50.

DENV-2 16681 strain = assay: DENV-2 antiviral assay (eGFP-labelled virus in Vero cells); type: cell-based, Dengue virus; conditions: DENV-2 16681 eGFP, MOI 0.5, 3 days
Procedure: The antiviral activity of all the compounds of the invention was tested against DENV-2 16681 strain which was labeled with enhanced green fluorescent protein (eGPF). The culture medium consists of minimal essential medium supplemented with 2% of heat-inactivated fetal calf serum, 0.04% gentamycin (50 mg/mL) and 2 mM of L-glutamine. Vero cells, obtained from ECACC, were suspended in culture medium and 25 μL was added to 384-well plates (2500 cells/well), which already contain the antiviral compounds. Typically, these plates contain a 4-fold serial dilution of 9 dilution steps of the test compound at 200 times the final concentration in 100% DMSO (200 nL). In addition, each compound concentration is tested in quadruplicate (final concentration range: 25 μM-0.00038 μM). Finally, each plate contains wells which are assigned as virus controls (containing cells and virus in the absence of compound), cell controls (containing cells in the absence of virus and compound) and medium controls (containing medium in the absence of cells, virus and compounds). To the wells assigned as medium control, 25 μL of culture medium was added instead of Vero cells. Once the cells were added to the plates, the plates were incubated for 30 minutes at room temperature to allow the cells to distribute evenly within the wells. Next, the plates were incubated in a fully humidified incubator (37° C., 5% CO2) until the next day. Then, DENV-2 strain 16681, labeled with eGFP, was added at a multiplicity of infection (MOI) of 0.5. Therefore, 15 μL of virus suspension was added to all the wells containing test compound and to the wells assigned as virus control. In parallel, 15 μL of culture medium was added to the medium and cell controls. Next, the plates were incubated for 3 days in a fully humidified incubator (37° C., 5% CO2). At the day of the read out, the eGFP fluorescence was measured using an automated fluorescence microscope at 488 nm (blue laser). Using an in-house LIMS system, inhibition dose response curves for each compound were calculated and the half maximal effective concentration (EC50) was determined. Therefore, the percent inhibition (I) for every test concentration is calculated using the following formula: I=100*(ST−SCC)/(SVC−SCC); ST, SCC and SVC are the amount of eGFP signal in the test compound, cell control and virus control wells, respectively. The EC50 represents the concentration of a compound at which the virus replication is inhibited with 50%, as measured by a 50% reduction of the eGFP fluorescent intensity compared to the virus control. The EC50 is calculated using linear interpolation (Table 1).

in vitro = type: cell-based; conditions: African green monkey, CC50
Procedure: Potential cytotoxic effects of the compounds were evaluated in uninfected Vero cells. Cells were seeded at 4×10^4 cells/well in a 96-well plate in the presence of two-, three- or five-fold serial dilutions (ranging from 50 μg/mL-0.0038 μg/mL, 50 μg/mL-0.0076 μg/mL, and 50 μg/mL-0.00013 μg/mL, respectively) of compound and incubated for 4 to 7 days. Culture medium was discarded and 100 μL 3-(4,5-dimethylthiazol-2-yl)-5-(3-carboxymethoxyphenyl)-2-(4-sulfophenyl)-2H-tetrazolium/phenazinemethosulfate (MTS/PMS; Promega, Leiden, The Netherlands) in PBS was added to each well. Following a 2-hour incubation period at 37° C., the optical density was determined at 498 nm. Cytotoxic activity was calculated using the following formula: % cell viability=100×(ODCompound/ODCC), where ODcompound and ODCC correspond to the optical density at 498 nm of the uninfected cell cultures treated with compound and that of uninfected, untreated cell cultures, respectively. The 50% cytotoxic concentration (i.e., the concentration that reduces the total cell number with 50%; CC50) was calculated using linear interpolation (Tables 7 and 8).

Structure (SMILES) | CC50 (Vero cells) | EC50 (DENV-2 16681 strain) | CC50 (in vitro)
COc1cc(NC(C(=O)c2c[nH]c3cc(F)ccc23)c2ccc(F)cc2OC)cc(OCCO)c1 (single isomer, unassigned) [Compound 1A, 1-(6-fluoro-1H-indol-3-yl)-2-(4-fluoro-2-methoxyphenyl)-2-((3-(2-hydroxyethoxy)-5-methoxyphenyl)amino)ethanone] | 8.4 µM | 0.0038 µM | 13 µM
COc1cc(NC(C(=O)c2c[nH]c3c(C)c(F)ccc23)c2ccc(F)cc2OC)cc(OCCO)c1 (single isomer, unassigned) [Compound 2B, 2-(4-fluoro-2-methoxyphenyl)-1-(6-fluoro-7-methyl-1H-indol-3-yl)-2-((3-(2-hydroxyethoxy)-5-methoxyphenyl)amino)ethanone] | 5.3 µM | 0.0022 µM | 9.2 µM
COc1cc(NC(C(=O)c2c[nH]c3c(C)c(Cl)ccc23)c2ccc(F)cc2OC)cc(OCCO)c1 (single isomer, unassigned) [Compound 3A, 1-(6-chloro-7-methyl-1H-indol-3-yl)-2-(4-fluoro-2-methoxyphenyl)-2-((3-(2-hydroxyethoxy)-5-methoxyphenyl)amino)ethanone] | – | 0.00077 µM | 7.6 µM
COc1cc(NC(C(=O)c2c[nH]c3cc(Cl)ccc23)c2ccc(F)cc2OC)cc(OCCO)c1 (single isomer, unassigned) [Compound 4A, 1-(6-chloro-1H-indol-3-yl)-2-(4-fluoro-2-methoxyphenyl)-2-((3-(2-hydroxyethoxy)-5-methoxyphenyl)amino)ethanone] | 5.9 µM | 0.0016 µM | 9.7 µM
COc1cc(NC(C(=O)c2c[nH]c3c(F)c(F)ccc23)c2ccc(F)cc2OC)cc(OCCO)c1 (single isomer, unassigned) [Compound 5B, 1-(6,7-difluoro-1H-indol-3-yl)-2-(4-fluoro-2-methoxyphenyl)-2-((3-(2-hydroxyethoxy)-5-methoxyphenyl)amino)ethanone] | 6.5 µM | 0.0025 µM | 12 µM
COc1cc(NC(C(=O)c2c[nH]c3cc(OC)c(C)cc23)c2ccc(F)cc2OC)cc(OCCO)c1 (single isomer, unassigned) [Compound 6A, 2-(4-fluoro-2-methoxyphenyl)-2-((3-(2-hydroxyethoxy)-5-methoxyphenyl)amino)-1-(6-methoxy-5-methyl-1H-indol-3-yl)ethanone] | – | 0.0027 µM | 9.7 µM
COc1cc(NC(C(=O)c2c[nH]c3cc(OC)c(F)cc23)c2ccc(F)cc2OC)cc(OCCO)c1 (single isomer, unassigned) [Compound 7A, 2-(4-fluoro-2-methoxyphenyl)-1-(5-fluoro-6-methoxy-1H-indol-3-yl)-2-((3-(2-hydroxyethoxy)-5-methoxyphenyl)amino)ethanone] | – | 0.0046 µM | 16 µM
COc1cc(NC(C(=O)c2c[nH]c3c(Cl)c(OC)ccc23)c2ccc(F)cc2OC)cc(OCCO)c1 (single isomer, unassigned) [Compound 8A, 1-(7-chloro-6-methoxy-1H-indol-3-yl)-2-(4-fluoro-2-methoxyphenyl)-2-((3-(2-hydroxyethoxy)-5-methoxyphenyl)amino)ethanone] | 8.6 µM | 0.001 µM | 9.6 µM
COc1cc(NC(C(=O)c2c[nH]c3c(C)cc(F)cc23)c2ccc(F)cc2OC)cc(OCCO)c1 (single isomer, unassigned) [Compound 9B, 2-(4-fluoro-2-methoxyphenyl)-1-(5-fluoro-7-methyl-1H-indol-3-yl)-2-((3-(2-hydroxyethoxy)-5-methoxyphenyl)amino)ethanone] | 5.5 µM | 0.0034 µM | 8.8 µM
COc1cc(NC(C(=O)c2c[nH]c3cc(F)c(F)cc23)c2ccc(F)cc2OC)cc(OCCO)c1 (single isomer, unassigned) [Compound 10B, 1-(5,6-difluoro-1H-indol-3-yl)-2-(4-fluoro-2-methoxy-phenyl)-2-((3-(2-hydroxyethoxy)-5-methoxyphenyl)amino)ethanone] | 6.9 µM | 0.0027 µM | 7.3 µM
COc1cc(NC(C(=O)c2c[nH]c3c(C)c(OC)ccc23)c2ccc(F)cc2OC)cc(OCCO)c1 (single isomer, unassigned) [Compound 11A, 2-(4-fluoro-2-methoxyphenyl)-2-((3-(2-hydroxyethoxy)-5-methoxyphenyl)amino)-1-(6-methoxy-7-methyl-1H-indol-3-yl)ethanone] | 8.9 µM | 0.00081 µM | 11 µM
COc1cc(NC(C(=O)c2c[nH]c3c(F)cc(C)cc23)c2ccc(F)cc2OC)cc(OCCO)c1 (single isomer, unassigned) [Compound 12B, 2-(4-fluoro-2-methoxyphenyl)-1-(7-fluoro-5-methyl-1H-indol-3-yl)-2-((3-(2-hydroxyethoxy)-5-methoxyphenyl)amino)ethanone] | 5.5 µM | 0.0051 µM | 9.4 µM
